Results published in patent publication US10301305B2 (priority 2014, dated 2019).
pIC50: −log10 of the molar value. Counter-ions that a name gives are not always drawn.

Columns and labels:
Format in all cases: biochemical
[1] = biological target: E. feacalis DltA (Enterococcus faecalis, UniProt Q830N0); test: in vitro DltA activity assay (luminescence), E. faecalis DltA; conditions: recombinant DltA, 30 min pre-incubation, 0.5 mM D-Alanine, 0.5-5 μM ATP; read-out: E. feacalis DltA IC50
Description: (§1) The effect of the compounds of the invention on DltA enzymes has been based on the measure of their inhibition of DltA activity in vitro. To this end, recombinant proteins DltA were expressed and purified after cloning of the genes of S. aureus, E. faecalis, E. faecium and S. agalactiae as described thereafter. The capacity of the compounds of the invention to inhibit DltA enzymatic activity was assessed using the DltA assays as described below:
(§2) The dltA gene was amplified from chromosomal DNA of S. aureus, E. faecalis, E. faecium and S. agalactiae and introduced into E. coli BL21 (Invitrogen, Carlsbad, Calif.) following manufacturer's instruction. Bacteria were grown at 37° C. under aerobic conditions and isopropyl-beta-D-thiogalactopyranoside (IPTG) was added to 0.5-1 mM when OD600 of the bacterial culture had reached 0.5. After a further incubation for 3 hours, cells were harvested by centrifugation. Purification of the recombinant DltA protein was performed by affinity chromatography on nickel-nitrilotriacetic acid (Ni-NTA) column following manufacturer's instructions (Qiagen). Fractions containing recombinant DltA protein were adjusted to 50% glycerol and stored at −20° C. until use.
(§3) The binding potency of the inhibitors against DltA enzyme was assessed by IC50 determination in an in vitro DltA activity assay. The assay buffer “AB” contained 50 mM Hepes pH8.0, 10 mM MgCl2, 50 mM KCl, 0.012% Triton-X100, 10 mM DTT and 100 nM Myelin-basic protein. The following components were added in a white polystyrene Costar plate up to a final volume of 30 μL: 3 μL DMSO, or inhibitor dissolved in DMSO and 27 μL DltA enzyme in AB. After 30 min of pre-incubation at room temperature, 30 μL of Substrates mix in AB were added in each well to a final volume of 60 μL. This reaction mixture was then composed of DltA (produced in house from S. aureus, E. faecalis, E. faecium and S. agalactiae), 0.5 mM D-Alanine (Sigma), 0.5-5 μM ATP (Sigma) and 0.05 u/ml inorganic pyrophosphatase (Sigma) in assay buffer. After typically 1-2 hours of incubation at room temperature (conversion rate around 30%), 30 μL of the revelation mix were added to a final volume of 90 μL, including the following constituents at the respective final concentrations: 10000 u/ml luciferase (Sigma), 30 μM D-luciferin (Sigma), 100 μM N-acetylcysteamine (Aldrich). Luminescence intensity was immediately measured on a Fluostar Optima (BMG) (excitation 360 nm, emission 520 nm) and converted into inhibition percentages. For IC50 determinations (Inhibitory Concentration 50%) the inhibitor was added at 6 to 10 different concentrations and the related inhibitions were fitted to a classical Langmuir equilibrium model using XLFIT (IDBS).
(§4) For compounds interfering with the luminescent signal (quenching), the same experiment without DltA enzyme was performed to allow quenching determination and correction.

[2] = biological target: S. Agalactiae DltA (Streptococcus agalactiae serotype III (strain NEM316), UniProt Q8VM67); test: in vitro DltA activity assay (luminescence), S. agalactiae DltA; conditions: recombinant DltA, 30 min pre-incubation, 0.5 mM D-Alanine, 0.5-5 μM ATP; read-out: S. Agalactiae DltA IC50
Description: as §1, §2, §3, §4

[3] = biological target: S. aureus DltA (Staphylococcus aureus (strain NCTC 8325 / PS 47), UniProt Q2FZW6); test: in vitro DltA activity assay (luminescence), S. aureus DltA; conditions: recombinant DltA, 30 min pre-incubation, 0.5 mM D-Alanine, 0.5-5 μM ATP; read-out: S. aureus DltA IC50
Description: as §1, §2, §3, §4

[4] = biological target: E. feacium DltA (Enterococcus faecium, UniProt Q3XZT7); test: in vitro DltA activity assay (luminescence), E. faecium DltA; conditions: recombinant DltA, 30 min pre-incubation, 0.5 mM D-Alanine, 0.5-5 μM ATP; read-out: E. feacium DltA IC50
Description: as §1, §2, §3, §4

E. feacium DltA, sequence (Q3XZT7 1-504): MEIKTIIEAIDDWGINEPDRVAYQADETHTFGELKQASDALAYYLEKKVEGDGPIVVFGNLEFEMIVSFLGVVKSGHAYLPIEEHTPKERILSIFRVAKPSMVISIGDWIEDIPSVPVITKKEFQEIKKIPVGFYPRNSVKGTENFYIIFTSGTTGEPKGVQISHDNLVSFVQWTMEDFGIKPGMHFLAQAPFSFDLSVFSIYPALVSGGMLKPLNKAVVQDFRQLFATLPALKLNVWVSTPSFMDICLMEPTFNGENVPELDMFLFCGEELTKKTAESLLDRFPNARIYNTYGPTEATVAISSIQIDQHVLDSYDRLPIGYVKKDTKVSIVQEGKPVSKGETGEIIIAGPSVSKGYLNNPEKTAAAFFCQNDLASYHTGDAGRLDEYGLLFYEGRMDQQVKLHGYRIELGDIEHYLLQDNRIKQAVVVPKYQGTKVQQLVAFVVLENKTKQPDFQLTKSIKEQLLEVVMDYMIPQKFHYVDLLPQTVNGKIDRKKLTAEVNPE
E. feacalis DltA, sequence (Q830N0 1-506): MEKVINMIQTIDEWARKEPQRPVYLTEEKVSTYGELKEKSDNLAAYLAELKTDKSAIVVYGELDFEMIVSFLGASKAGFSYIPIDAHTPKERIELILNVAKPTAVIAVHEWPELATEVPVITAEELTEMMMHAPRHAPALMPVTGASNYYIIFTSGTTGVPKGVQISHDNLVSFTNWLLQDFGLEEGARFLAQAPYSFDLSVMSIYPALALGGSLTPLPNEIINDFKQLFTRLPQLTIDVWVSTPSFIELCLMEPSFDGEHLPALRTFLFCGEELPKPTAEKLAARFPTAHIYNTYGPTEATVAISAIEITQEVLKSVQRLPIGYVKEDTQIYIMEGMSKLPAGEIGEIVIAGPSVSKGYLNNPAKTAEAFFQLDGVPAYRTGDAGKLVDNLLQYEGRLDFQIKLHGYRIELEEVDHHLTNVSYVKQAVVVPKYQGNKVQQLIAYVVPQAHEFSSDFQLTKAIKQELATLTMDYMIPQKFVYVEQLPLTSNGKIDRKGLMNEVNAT

| SMILES | pIC50 [1] | pIC50 [2] | pIC50 [3] | pIC50 [4] |
| --- | --- | --- | --- | --- |
| CN(C)CCOc1cc(-c2ccc3c(c2)ncn3C2CCCCC2)c2nc[nH]c2c1C#N [Example 104] | 7.08 | 5.62 | 7.28 | 6.41 |
| CN1CCN(c2cc(-c3ccc4c(c3)ncn4C3CCCCC3)c3nc[nH]c3c2C(N)=O)CC1 [Example 106, 1′-Cyclohexyl-6-(4-methyl-piperazin-1-yl)-1H,1′H-[4,5′]bibenzimidazolyl-7-carboxamide] | 7.74 | 6.30 | 7.47 | 7.12 |
| O=C(NO)c1c(F)cc(-c2ccc3c(c2)ncn3C2CCCCC2)c2nc[nH]c12 [Example 111, 1′-Cyclohexyl-6-fluoro-1H,1′H-[4,5′]bibenzimidazolyl-N-hydroxy-7-carboxamide] | 6.21 | 4.96 | 6.55 | 5.96 |
| CN(CCO)c1cc(-c2ccc3c(c2)ncn3C2CCCCC2)c2nc[nH]c2c1C(N)=O [Example 117, 1′-Cyclohexyl-6-[(2-hydroxy-ethyl)-methyl-amino]-1H,1′H-[4,5′]bibenzimidazolyl-7-carboxamide] | 7.80 | 6.25 | 7.64 | 7.57 |
| CN(C)CCCN(C)c1cc(-c2ccc3c(c2)ncn3C2CCCCC2)c2nc[nH]c2c1C(N)=O [Example 122, 1′-Cyclohexyl-6-[(3-dimethylamino-propyl)-methyl-amino]-1H,1′H-[4,5′]bibenzimidazolyl-7-carboxamide] | 7.51 | 5.74 | 7.23 | 7.09 |
| CN(C)CCN(C)c1cc(-c2ccc3c(c2)ncn3C2CCCOC2)c2nc[nH]c2c1C(N)=O (stereo not shown) [Example 123, 6-[(2-dimethylamino-ethyl)-methyl-amino]-1′-(tetrahydro-pyran-3-yl)-1H,1′H-[4,5′]bibenzimidazolyl-7-carboxamide] | 8.09 | 6.01 | 8.16 | 7.39 |
| CN(C)CC1CCCN1c1cc(-c2ccc3c(c2)ncn3C2CCCCC2)c2nc[nH]c2c1C(N)=O (stereo not shown) [Example 126, 1′-Cyclohexyl-6-(2-dimethylaminomethyl-pyrrolidin-1-yl)-1H,1′H-[4,5′]bibenzimidazolyl-7-carboxamide] | 7.25 | 5.74 | 7.24 | 6.62 |
| CN(CCN1CCCC1)c1cc(-c2ccc3c(c2)ncn3C2CCCCC2)c2nc[nH]c2c1C(N)=O [Example 127, 1′-Cyclohexyl-6-[methyl-(2-pyrrolidin-1-yl-ethyl)-amino]-1H,1′H-[4,5′]bibenzimidazolyl-7-carboxamide] | 8.54 | 6.85 | 7.60 | 7.74 |
| CCN(CC)CCN(C)c1cc(-c2ccc3c(c2)ncn3C2CCCCC2)c2nc[nH]c2c1C(N)=O [Example 130, 1′-Cyclohexyl-6-[(2-diethylamino-ethyl)-methyl-amino]-1H,1′H-[4,5′]bibenzimidazolyl-7-carboxamide] | 7.44 | 6.10 | 7.14 | 6.77 |
| CN(C)CCN(CCO)c1cc(-c2ccc3c(c2)ncn3C2CCCCC2)c2nc[nH]c2c1C(N)=O [Example 131, 1′-Cyclohexyl-6-[(2-dimethylamino-ethyl)-(2-hydroxy-ethyl)-amino]-1H,1′H-[4,5′]bibenzimidazolyl-7-carboxamide] | 7.40 | 5.72 | 7.12 | 6.64 |
| CN(C)CCN(C)c1cc(-c2ccc3scnc3c2)c2nc[nH]c2c1C(N)=O [Example 134, 7-Benzothiazol-5-yl-5-[(2-dimethylamino-ethyl)-methyl-amino]-3H-benzimidazole-4-carboxamide] | 7.62 | 5.96 | 6.60 | 6.92 |
| COCCn1cnc2cc(-c3cc(N(C)CCN(C)C)c(C(N)=O)c4[nH]cnc34)ccc21 [Example 135] | 7.16 | 6.08 | 7.77 | 7.35 |
| CN(C)CCN(C)c1cc(-c2cnc3c(c2)CCCO3)c2nc[nH]c2c1C(N)=O [Example 144, 7-(3,4-Dihydro-2H-pyrano[2,3-b]pyridin-6-yl)-5-[(2-dimethylamino-ethyl)-methyl-amino]-3H-benzimidazole-4-carboxamide] | 7.77 | 6.20 | 7.41 | 6.92 |
| CCn1cnc2cc(-c3cc(N(C)CCN(C)C)c(C(N)=O)c4[nH]cnc34)cc(OC)c21 [Example 152] | 7.80 | 5.66 | 7.89 | 7.24 |
| CN(C)CCN(C)c1cc(-c2ccc3c(c2)ncn3C2CCC(F)(F)CC2)c2nc[nH]c2c1C(N)=O [Example 161, 1′-(4,4-Difluoro-cyclohexyl)-6-[(2-dimethylamino-ethyl)-methyl-amino]-1H,1′H-[4,5′]bibenzimidazolyl-7-carboxamide] | 8.09 | 5.92 | 7.89 | 7.16 |
| CN(C)CCN(C)c1cc(-c2ccc3c(c2)ncn3CC(F)F)c2nc[nH]c2c1C(N)=O [Example 163, 1′-(2,2-Difluoro-ethyl)-6-[(2-dimethylamino-ethyl)-methyl-amino]-1H,1′H-[4,5′]bibenzimidazolyl-7-carboxamide] | 8.27 | 6.11 | 7.85 | 7.47 |
| CN(C)CCN(C)c1cc(-c2cc3c4c(c2)ncn4CCO3)c2nc[nH]c2c1C(N)=O [Example 165, 7-(3,4-Dihydro-5-oxa-1.2a-diaza-acenaphthylen-7-yl)-5-[(2-dimethylamino-ethyl)-methyl-amino]-3H-benzimidazole-4-carboxamide] | 7.59 | 5.66 | 7.54 | 7.05 |
| CN(CCO)c1cc(-c2ccc3c(c2)ncn3[C@@H]2CCCC[C@H]2F)c2nc[nH]c2c1C(N)=O [Example 171] | 8.17 | 6.46 | 7.82 | 7.40 |
| COCCN(C)c1cc(-c2ccc3c(c2)ncn3C2CCCCC2)c2nc[nH]c2c1C(N)=O [Example 176, 1′-Cyclohexyl-6-[(2-methoxy-ethyl)-methyl-amino]-1H,1′H-[4,5′]bibenzimidazolyl-7-carboxamide] | 7.46 | 5.64 | 6.03 | 6.72 |
| CN(CCO)c1cc(-c2cnc3c(c2)CCCO3)c2nc[nH]c2c1C(N)=O [Example 177, 7-(3,4-Dihydro-2H-pyrano[2,3-b]pyridin-6-yl)-5-[(2-hydroxy-ethyl)-methyl-amino]-3H-benzimidazole-4-carboxamide] | 7.35 | 5.96 | 6.77 | 6.49 |
| CN(CCN1CCCC1)c1cc(-c2cnc3c(c2)CCCO3)c2nc[nH]c2c1C(N)=O [Example 181, 7-(3,4-Dihydro-2H-pyrano[2,3-b]pyridin-6-yl)-5-[methyl-(2-pyrrolidin-1-yl-ethyl)-amino]-3H-benzimidazole-4-carboxamide] | 8.04 | 6.74 | 7.29 | 6.80 |
| CN(C)CCOc1cc(-c2cnc3c(c2)CCCO3)c2nc[nH]c2c1C(N)=O [Example 182, 7-(3,4-Dihydro-2H-pyrano[2,3-b]pyridin-6-yl)-5-(2-dimethylamino-ethoxy)-3H-benzimidazole-4-carboxamide methanesulfonic acid salt] | 8.35 | 6.32 | 8.32 | 7.23 |
